Experimental data published in patent US6054441A, “Oxypurine nucleosides and their congeners, and acyl derivatives thereof, for improvement of hematopoiesis” (priority 1995, dated 2000).

What was measured:
Assay type in all cases: in vivo, Balb/C mice
[1] = system: hematopoietic recovery after cyclophosphamide; assay: Hematopoietic recovery after cyclophosphamide (Example 50); settings: day 5; 2 μmoles/mouse
Experimental: Cyclophosphamide (CP) (275 mg/kg, i.p.) was administered to 96 Balb/C female mice weighing approximately 20 grams each. Twenty-four hours later and each day thereafter mice were given a 0.4 ml i.p. injection of either Tween-80 (0.2%) (controls), palmitoyldeoxyguanosine (2 μmoles/mouse), palmitoyldeoxyinosine (2 μmoles/mouse), palmitoylacyclovir (2 μmoles/mouse), palmitoylarabinosylguanine (2 μmoles/mouse), palmitoylarabinosylhypoxanthine (2 μmoles/mouse), monopalmitoylguanosine 2',3'-acyclic dialcohol (2 μmoles/mouse), and palmitoyl-8-thioguanosine (2 μmoles/mouse). On days 5 and 7 following CP administration 6 animals in each of the 8 groups were bled and then sacrificed by cervical dislocation. Spleens were removed and weighed, and complete blood cell counts performed.

[2] = system: hematopoietic recovery after cyclophosphamide; assay: Timing of administration, hematopoietic recovery after cyclophosphamide (Example 41); settings: day 7
Experimental: Cyclophosphamide (CP) (275 mg/kg, i.p.) was administered to 81 Balb/C female mice weighing approximately 20 grams each. Twenty-four hours later treatment was begun. Mice were given a 0.4 ml i.p. injection of either physiological saline (controls), Tween 80 (0.2%), or palmitoylguanosine (5 μmoles/mouse/day in 0.2% Tween 80). The timing of the treatments was varied within the groups. The control group was given saline on days 1-6. The mice receiving Tween 80 were treated either on days 1-4, 4-6 or 1-6. Palmitoylguanosine-treated mice were treated either on days 1-2, 1-4, 3-5, 4-6 or 1-6. If a group of mice received no Tween 80 or palmitoylguanosine on a given day, saline was administered by i.p. injection. Thus, there were 9 groups of 9 animals in all. On day 7 following CP administration all of the animals were bled and then sacrificed by cervical dislocation. Spleens were removed and weighed, and complete blood cell counts performed.

[3] = system: hematopoietic recovery after 5-fluorouracil; assay: Hematopoietic recovery after 5-fluorouracil (Example 43)
Experimental: 5-fluorouracil (5-FU) (150 mg/kg,i.p.) was administered to fifty-four Balb/C female mice weighing approximately 20 grams each. Twenty-four hours later and each day thereafter for a total of 7 days, mice were given a 0.4 ml i.p. injection of either physiological saline (controls) or palmitoylguanosine (2.5 μmoles/mouse/day in 0.2% Tween 80). On days 8, 10 and 12 following administration of 5-FU nine animals from each group were bled and then sacrificed by cervical dislocation. Spleens were removed and weighed, and complete blood cell counts performed.

irradiated mice = assay: Survival of irradiated mice (Example 39); settings: for mice surviving 30 days after irradiation over number irradiated: 50 mg/kg i.p., 6 days after irradiation
Experimental: Thirty female Balb/C mice weighing 20 grams each were irradiated with Cobalt 60 gamma radiation at a dose rate of 7.3 Rads per minute. The total dose was either 700, 725, or 750 Rads. Twenty-four hours later and each day thereafter for a total of 6 days, these mice received an i.p. injection of either physiological saline (controls) or 50 mg/kg of palmitoylguanosine. The number of animals surviving in each group was observed over a 30 day period.

bone marrow cells = assay: Colony forming units in bone marrow of mice recovering from cyclophosphamide (Example 40); settings: 2.5 μmoles/mouse/day i.p.
Experimental: Seventy-two Balb/C female mice weighing approximately 20 grams each were given cyclophosphamide (275 mg/kg) by intraperitoneal (i.p.) injection. Twenty-four hours later and each day thereafter, mice received a 0.4 ml i.p. injection of either physiological saline (control) or palmitoylguanosine (2.5 μmoles/mouse/day in 0.2% Tween 80). On days 3, 5, 7, and 10 following CP administration 6 animals from each group were sacrificed by cervical dislocation, and the left femur of each animal obtained by sterile means. The bone marrow cells were then flushed from the femurs with McCoy's 5a Modified medium using a 23-gauge needle. Cells from femurs in the same group were pooled, dispersed by briefly vortexing, and counted using a hemocytometer. Cell suspensions were added to McCoy's Modified 5a medium containing 15% bovine calf serum, 1x Kanamycin, 0.3% agar, and 3% endotoxin-stimulated serum. […] Each group was plated in quintuplicate. After 7 days in culture (at 37° in 5% CO2 and humidified air) aggregates of 50 cells or more ("colonies") were counted using a dissecting microscope at 25x.

[4] = system: hematopoietic recovery after cyclophosphamide; assay: Hematopoietic recovery after cyclophosphamide, acyl chain length (Example 38); settings: day 7
Experimental: Cyclophosphamide (CP) (275 mg/kg, i.p.) was administered to 70 Balb/C female mice weighing approximately 20 grams each. Twenty-four hours later and each day thereafter for a total of 6 days, mice were given a 0.4 ml i.p injection of either physiological saline (controls), Tween 80 (0.2%), guanosine (5 μmoles/mouse/day in 0.2% Tween 80), or 2.5 μmoles per mouse per day of one of the following acylated derivatives of guanosine in 0.2% Tween 80: triacetylguanosine, octanoylguanosine, lauroylguanosine, or palmitoylguanosine. On day 7 following CP administration all 10 animals from each of the 7 groups were bled, and then sacrificed by cervical dislocation. Spleens were removed and weighed, and complete blood counts performed.

[5] = system: hematopoietic recovery after 5-fluorouracil; assay: Hematopoietic recovery after 5-fluorouracil (Example 42)
Experimental: 5-fluorouracil (5-FU) (150 mg/kg, i.p.) was administered to forty Balb/C female mice weighing approximately 20 grams each. Twenty-four hours later and each day thereafter for a total of 8 days, mice were given a 0.4 ml i.p. injection of either physiological saline (controls) or 5'-O-palmitoylguanosine (2.5 μmoles/mouse/day in 0.2% Tween 80). On days 7 and 14 following 5-FU administration half of the animals from each group were bled and then were sacrificed by cervical dislocation. Spleens were removed and weighed, and complete blood cells counts performed.

Question: For CCCCCCCCCCCCCCCC(=O)OC[C@H]1O[C@@H](n2cnc3c(=O)[nH]c(N)nc32)[C@H](O)[C@@H]1O, which spleen weight [1] is on record?
Answer: significantly elevated

Question: And the spleen weight ([2]; 5 μmoles/mouse/day, any time period, vs saline)?
Answer: significantly greater spleen weight

Question: What about the “total white blood cell (WBC) counts” value ([2]; all periods except days 4-6, vs Tween 80) of the same molecule?
Answer: significantly greater

Question: And the spleen weight ([2]; any period, vs Tween 80)?
Answer: larger spleens

Question: What about the “total white blood cell (WBC) counts” value ([2]; each treatment period, vs saline) of the same molecule?
Answer: significantly greater

Question: And the lymphocyte counts ([2]; treatment days 1-2 or 1-6)?
Answer: elevated lymphocyte counts

Question: What about the spleen weight ([2]; treatment days 1-4 or 1-6, among periods) of the same molecule?
Answer: greatest effect on spleen weight

Question: What about the total neutrophil counts ([2]; treatment days 1-6) of the same molecule?
Answer: greatest increase in total neutrophil counts

Question: And the “total white blood cell (WBC) counts” value ([2]; treatment days 1-6, vs other periods)?
Answer: greatest effect

Question: And the total neutrophils ([2]; treatment days 1 and 2, vs saline or Tween 80)?
Answer: significant increase in total neutrophils

Question: And the Platelets ([3]; day 8, 2.5 μmoles/mouse/day i.p., vs control)?
Answer: significantly greater

Question: What about the Platelets ([3]; day 10, vs control) of the same molecule?
Answer: greater numbers of platelets

Question: And the spleen size ([3]; day 10, vs saline)?
Answer: significantly larger

Question: What about the “number of neutrophils, fold greater than control” value ([3]; day 12) of the same molecule?
Answer: 3 fold

Question: What about the spleen weight ([3]; day 12, vs control) of the same molecule?
Answer: more than double

Question: What about the mice surviving (irradiated mice; 2 higher radiation doses, 30 days) of the same molecule?
Answer: all of the mice treated with palmitoylguanosine survived

Question: And the “mice surviving 30 days after irradiation over number irradiated” value (irradiated mice; 725 R)?
Answer: 5/5

Question: What about the “mice surviving 30 days after irradiation over number irradiated” value (irradiated mice; 750 R) of the same molecule?
Answer: 5/5

Question: And the survival (irradiated mice; pretreatment prior to irradiation)?
Answer: improved survival

Question: And the colony-forming units (bone marrow cells; day 3)?
Answer: 645 ± 26 colonyforming units per femur

Question: What about the colony-forming units (bone marrow cells; day 5) of the same molecule?
Answer: 2327 ± 121 colonyforming units per femur

Question: What about the colony-forming units (bone marrow cells; day 7) of the same molecule?
Answer: 1328 ± 140 colonyforming units per femur

Question: What about the colony-forming units (bone marrow cells; day 10) of the same molecule?
Answer: 647 ± 25 colonyforming units per femur

Question: What about the “white blood cell (WBC) counts” value [4] of the same molecule?
Answer: greatest effect on total WBC counts

Question: And the spleen weight ([4]; guanosine 5, acyl derivatives 2.5 μmoles/mouse/day i.p.)?
Answer: significantly larger spleens

Question: What about the spleen weight ([5]; day 7, 2.5 μmoles/mouse/day i.p.) of the same molecule?
Answer: slight, but statistically significant, increase in spleen weight

Question: And the other parameters ([5]; day 7, vs control)?
Answer: No other differences

Question: And the Lymphocytes ([5]; day 14)?
Answer: significantly higher numbers

Question: And the Neutrophils ([5]; day 14)?
Answer: significantly higher numbers

Question: And the Platelets ([5]; day 14)?
Answer: significantly higher numbers

Question: What about the spleen weight ([5]; day 14) of the same molecule?
Answer: significantly heavier spleens

Question: And the total leukocytes ([5]; day 14)?
Answer: significantly higher numbers
